Calls of active or inactive are those of the source.
Key:
Ammannia multiflora [1] = test: Post-emergence herbicidal activity against Ammannia multiflora assessed as bleaching of stem/leaf parts; assay type: functional, organism-based; further: test concentration or dose not given here
Pontederia vaginalis [2] = test: Pre-emergence herbicidal activity against Monochoria vaginalis assessed as bleaching of stem/leaf parts; assay type: functional, organism-based
[3] = test system: Schoenoplectiella juncoides; test: Post-emergence herbicidal activity against Schoenoplectiella juncoides assessed as bleaching of stem/leaf parts; assay type: functional, organism-based; further: test concentration or dose not given here
Pontederia vaginalis [4] = test: Pre-emergence herbicidal activity against Monochoria vaginalis at 2000 g a.i/ha measured after 14 days; assay type: functional, organism-based
Lindernia procumbens [5] = test: Pre-emergence herbicidal activity against Lindernia procumbens at 2000 g a.i/ha measured after 14 days; assay type: functional, organism-based
Eleocharis acicularis [6] = test: Pre-emergence herbicidal activity against Eleocharis acicularis assessed as bleaching of stem/leaf parts; assay type: functional, organism-based
Eleocharis acicularis [7] = test: Post-emergence herbicidal activity against Eleocharis acicularis assessed as bleaching of stem/leaf parts; assay type: functional, organism-based; further: test concentration or dose not given here
[8] = test system: Schoenoplectiella juncoides; test: Pre-emergence herbicidal activity against Schoenoplectiella juncoides assessed as bleaching of stem/leaf parts; assay type: functional, organism-based
Lindernia procumbens [9] = test: Pre-emergence herbicidal activity against Lindernia procumbens assessed as bleaching of stem/leaf parts; assay type: functional, organism-based
Elatine triandra [10] = test: Pre-emergence herbicidal activity against Elatine triandra at 2000 g a.i/ha measured after 14 days; assay type: functional, organism-based
Cyperus difformis [11] = test: Pre-emergence herbicidal activity against Cyperus difformis assessed as bleaching of stem/leaf parts; assay type: functional, organism-based
Ammannia multiflora [12] = test: Pre-emergence herbicidal activity against Ammannia multiflora at 2000 g a.i/ha measured after 14 days; assay type: functional, organism-based
Cyperus difformis [13] = test: Pre-emergence herbicidal activity against Cyperus difformis at 2000 g a.i/ha measured after 14 days; assay type: functional, organism-based
Echinochloa oryzicola [14] = test: Post-emergence herbicidal activity against Echinochloa oryzicola assessed as bleaching of stem/leaf parts; assay type: functional, organism-based; further: test concentration or dose not given here
Lindernia procumbens [15] = test: Post-emergence herbicidal activity against Lindernia procumbens assessed as bleaching of stem/leaf parts; assay type: functional, organism-based; further: test concentration or dose not given here
Elatine triandra [16] = test: Pre-emergence herbicidal activity against Elatine triandra assessed as bleaching of stem/leaf parts; assay type: functional, organism-based
Rotala indica [17] = test: Pre-emergence herbicidal activity against Rotala indica at 2000 g a.i/ha measured after 14 days; assay type: functional, organism-based
Ammannia multiflora [18] = test: Pre-emergence herbicidal activity against Ammannia multiflora assessed as bleaching of stem/leaf parts; assay type: functional, organism-based
[19] = test system: Schoenoplectiella juncoides; test: Pre-emergence herbicidal activity against Schoenoplectiella juncoides at 2000 g a.i/ha measured after 14 days; assay type: functional, organism-based
Echinochloa oryzicola [20] = test: Pre-emergence herbicidal activity against Echinochloa oryzicola at 2000 g a.i/ha measured after 14 days; assay type: functional, organism-based
Elatine triandra [21] = test: Post-emergence herbicidal activity against Elatine triandra assessed as bleaching of stem/leaf parts; assay type: functional, organism-based; further: test concentration or dose not given here
Cyperus difformis [22] = test: Post-emergence herbicidal activity against Cyperus difformis assessed as bleaching of stem/leaf parts; assay type: functional, organism-based; further: test concentration or dose not given here
Rotala indica [23] = test: Pre-emergence herbicidal activity against Rotala indica assessed as bleaching of stem/leaf parts; assay type: functional, organism-based
Rotala indica [24] = test: Post-emergence herbicidal activity against Rotala indica assessed as bleaching of stem/leaf parts; assay type: functional, organism-based; further: test concentration or dose not given here
Eleocharis acicularis [25] = test: Pre-emergence herbicidal activity against Eleocharis acicularis at 2000 g a.i/ha measured after 14 days; assay type: functional, organism-based
Oryza sativa = test: Phytotoxicity against Oryza sativa cv. Koshihikari (rice) at 2000 g a.i/ha measured after 14 days; assay type: organism-based; conditions: in vivo, 336 h
Pontederia vaginalis [26] = test: Post-emergence herbicidal activity against Monochoria vaginalis assessed as bleaching of stem/leaf parts; assay type: functional, organism-based; further: test concentration or dose not given here
Echinochloa oryzicola [27] = test: Pre-emergence herbicidal activity against Echinochloa oryzicola assessed as bleaching of stem/leaf parts; assay type: functional, organism-based

SMILES	Activity (Ammannia multiflora [1])	Activity (Pontederia vaginalis [2])	Activity [3]	Activity (Pontederia vaginalis [4])	Activity (Lindernia procumbens [5])	Activity (Eleocharis acicularis [6])	Activity (Eleocharis acicularis [7])	Activity [8]	Activity (Lindernia procumbens [9])	Activity (Elatine triandra [10])	Activity (Cyperus difformis [11])	Activity (Ammannia multiflora [12])	Activity (Cyperus difformis [13])	Activity (Echinochloa oryzicola [14])	Activity (Lindernia procumbens [15])	Activity (Elatine triandra [16])	Activity (Rotala indica [17])	Activity (Ammannia multiflora [18])	Activity [19]	Activity (Echinochloa oryzicola [20])	also measured
CCCN(CC)C(=O)c1cn(C)nc1OCc1cccc(Cl)c1	Active	Active	Active	Active	Active	Active	Active	Active	Active	Active	Active	Active	Active	Active	Active	Active	Active	Active	Active	Active	Activity (Elatine triandra [21]): Active; Activity (Cyperus difformis [22]): Active; Activity (Rotala indica [23]): Active; Activity (Rotala indica [24]): Active; Activity (Eleocharis acicularis [25]): Active; Activity (Oryza sativa): Non-toxic; Activity (Pontederia vaginalis [26]): Active; Activity (Echinochloa oryzicola [27]): Active
CCCN(CC)C(=O)c1cn(C)nc1OCc1cccc(C#N)c1	Active	Active	Active	inactive	inactive	Active	Active	Active	Active	inactive	Active	inactive	inactive	Active	Active	Active	inactive	Active	inactive	inactive	Activity (Elatine triandra [21]): Active; Activity (Cyperus difformis [22]): Active; Activity (Rotala indica [23]): Active; Activity (Rotala indica [24]): Active; Activity (Eleocharis acicularis [25]): inactive; Activity (Oryza sativa): Non-toxic; Activity (Pontederia vaginalis [26]): Active; Activity (Echinochloa oryzicola [27]): Active
CCCN(CC)C(=O)c1cn(C)nc1OCc1ccccc1	Active	Active	Active	Active	Active	Active	Active	Active	Active	Active	Active	Active	Active	Active	Active	Active	Active	Active	inactive	Active	Activity (Elatine triandra [21]): Active; Activity (Cyperus difformis [22]): Active; Activity (Rotala indica [23]): Active; Activity (Rotala indica [24]): Active; Activity (Eleocharis acicularis [25]): Active; Activity (Oryza sativa): Non-toxic; Activity (Pontederia vaginalis [26]): Active; Activity (Echinochloa oryzicola [27]): Active
CCCN(CC)C(=O)c1cn(C)nc1OCc1cccc(F)c1	Active	Active	Active	Active	Active	Active	Active	Active	Active	Active	Active	Active	Active	Active	Active	Active	Active	Active	Active	Active	Activity (Elatine triandra [21]): Active; Activity (Cyperus difformis [22]): Active; Activity (Rotala indica [23]): Active; Activity (Rotala indica [24]): Active; Activity (Eleocharis acicularis [25]): Active; Activity (Oryza sativa): Non-toxic; Activity (Pontederia vaginalis [26]): Active; Activity (Echinochloa oryzicola [27]): Active
CCCN(CC)C(=O)c1cn(C)nc1OCc1cc(Br)cc(Br)c1	Active	Active	Active	inactive	inactive	Active	Active	Active	Active	inactive	Active	inactive	inactive	Active	Active	Active	inactive	Active	inactive	inactive	Activity (Elatine triandra [21]): Active; Activity (Cyperus difformis [22]): Active; Activity (Rotala indica [23]): Active; Activity (Rotala indica [24]): Active; Activity (Eleocharis acicularis [25]): inactive; Activity (Oryza sativa): Non-toxic; Activity (Pontederia vaginalis [26]): Active; Activity (Echinochloa oryzicola [27]): Active
CCCN(CC)C(=O)c1cn(C)nc1OCc1ccc(C(F)(F)F)cc1	Active	Active	Active	Active	Active	Active	Active	Active	Active	Active	Active	Active	inactive	Active	Active	Active	Active	Active	Active	inactive	Activity (Elatine triandra [21]): Active; Activity (Cyperus difformis [22]): Active; Activity (Rotala indica [23]): Active; Activity (Rotala indica [24]): Active; Activity (Eleocharis acicularis [25]): inactive; Activity (Oryza sativa): Non-toxic; Activity (Pontederia vaginalis [26]): Active; Activity (Echinochloa oryzicola [27]): Active
CCCN(CC)C(=O)c1cn(C)nc1OCc1cccc(C(F)(F)F)c1	Active	Active	Active	Active	inactive	Active	Active	Active	Active	inactive	Active	inactive	Active	Active	Active	Active	inactive	Active	Active	Active	Activity (Elatine triandra [21]): Active; Activity (Cyperus difformis [22]): Active; Activity (Rotala indica [23]): Active; Activity (Rotala indica [24]): Active; Activity (Eleocharis acicularis [25]): Active; Activity (Oryza sativa): Toxic; Activity (Pontederia vaginalis [26]): Active; Activity (Echinochloa oryzicola [27]): Active
CCCN(CC)C(=O)c1cn(C)nc1OCc1ccc(SC)cc1	Active	Active	Active	inactive	inactive	Active	Active	Active	Active	inactive	Active	inactive	inactive	Active	Active	Active	inactive	Active	inactive	inactive	Activity (Elatine triandra [21]): Active; Activity (Cyperus difformis [22]): Active; Activity (Rotala indica [23]): Active; Activity (Rotala indica [24]): Active; Activity (Eleocharis acicularis [25]): inactive; Activity (Oryza sativa): Non-toxic; Activity (Pontederia vaginalis [26]): Active; Activity (Echinochloa oryzicola [27]): Active
C#CCOc1nn(C)cc1C(=O)N(CC)CCC	Active	Active	Active	inactive	inactive	Active	Active	Active	Active	inactive	Active	inactive	inactive	Active	Active	Active	inactive	Active	inactive	inactive	Activity (Elatine triandra [21]): Active; Activity (Cyperus difformis [22]): Active; Activity (Rotala indica [23]): Active; Activity (Rotala indica [24]): Active; Activity (Eleocharis acicularis [25]): inactive; Activity (Oryza sativa): Non-toxic; Activity (Pontederia vaginalis [26]): Active; Activity (Echinochloa oryzicola [27]): Active

Source: ChEMBL document CHEMBL3046635, “Synthesis and Herbicidal Activity of New Pyrazole-4-carboxamide Derivatives” (J Pestic Sci, 2004)
